In ChEMBL document CHEMBL1201862, “PubChem BioAssay data set” (2004):
Where “and” joins values, the source holds several entries; their conditions need not be identical. Identical values can stand only once. Calls of active or inactive are those of the source.

Legend:
[1] = cytotoxicity toward NIH3T3 fibroblasts, dose response, counter-screen, cell-based, ATP luminescence, mouse fibroblasts (AID 2010); assay type: functional;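 note: cells exposed to compound for about 90 hours before reading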
[2] = inhibitors of intracellular T. cruzi replication, confirmation, NIH3T3 host cells, beta-gal luminescence (AID 2044); assay type: functional, cell-based;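 note: intracellular parasites grown in NIH/3T3 mouse fibroblasts as host cells; luminescent beta-galactosidase reporter signal from transgenic T. cruzi replicating inside host cells; inhibitors lower the luminescence signal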
[3] = target: T1, Cytochrome P450 1A2 (Homo sapiens, UniProt P05177);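 note: PubChem cytochrome P450 panel assay, CYP1A2 panel member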
T1 sequence (P05177 whole entry): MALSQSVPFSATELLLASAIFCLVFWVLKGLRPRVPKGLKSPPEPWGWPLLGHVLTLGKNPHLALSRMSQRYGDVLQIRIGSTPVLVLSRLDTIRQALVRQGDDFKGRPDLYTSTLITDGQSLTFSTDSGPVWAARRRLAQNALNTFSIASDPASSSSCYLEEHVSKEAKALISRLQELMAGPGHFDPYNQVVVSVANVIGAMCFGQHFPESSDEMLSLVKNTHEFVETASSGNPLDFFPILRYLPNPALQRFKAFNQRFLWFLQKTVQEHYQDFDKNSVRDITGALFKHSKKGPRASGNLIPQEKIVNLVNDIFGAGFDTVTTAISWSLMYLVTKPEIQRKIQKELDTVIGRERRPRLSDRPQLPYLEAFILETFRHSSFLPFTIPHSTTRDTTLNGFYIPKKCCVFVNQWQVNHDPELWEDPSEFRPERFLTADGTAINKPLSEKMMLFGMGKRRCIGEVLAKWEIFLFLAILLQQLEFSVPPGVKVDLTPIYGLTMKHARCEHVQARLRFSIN

[4] = test system: INS1; assay: beta cell apoptosis inhibitors, cytokine rescue, dose response, luminescence, retest (AID 449756); assay type: functional, cell-based; conditions: Rattus norvegicus;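 note: cell death triggered by IL-1 beta plus TNF-alpha plus IFN-gamma mixture; protective hits raise ATP signal compared with cytokine alone wells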
[5] = Luminescence Cell-Based Dose Retest to Confirm Inhibitors of Cancer Stem Cells. [Related pubchem assays (depositor defined):AID2717, AID2721]; assay type: functional; conditions: Homo sapiens
[6] = target: Cytochrome P450 2C9 (Homo sapiens, UniProt P11712)
Sequence of Cytochrome P450 2C9 (P11712 whole entry): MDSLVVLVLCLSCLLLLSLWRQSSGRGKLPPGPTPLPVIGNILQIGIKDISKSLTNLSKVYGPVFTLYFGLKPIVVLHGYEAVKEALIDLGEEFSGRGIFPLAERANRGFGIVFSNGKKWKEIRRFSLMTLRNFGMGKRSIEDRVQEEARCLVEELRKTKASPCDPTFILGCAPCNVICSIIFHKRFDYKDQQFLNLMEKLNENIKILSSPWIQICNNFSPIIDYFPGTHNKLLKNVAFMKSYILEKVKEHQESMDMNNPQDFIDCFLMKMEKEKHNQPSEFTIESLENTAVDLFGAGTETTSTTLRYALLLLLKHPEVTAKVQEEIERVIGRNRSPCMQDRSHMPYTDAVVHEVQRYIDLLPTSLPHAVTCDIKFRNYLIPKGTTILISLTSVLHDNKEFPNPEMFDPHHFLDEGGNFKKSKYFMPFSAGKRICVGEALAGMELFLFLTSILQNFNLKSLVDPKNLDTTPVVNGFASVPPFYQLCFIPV

[7] = target: Cytochrome P450 2D6 (Homo sapiens, UniProt P10635);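 note: CYP2D6 member of a cytochrome P450 panel assay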
Sequence of Cytochrome P450 2D6 (P10635 whole entry): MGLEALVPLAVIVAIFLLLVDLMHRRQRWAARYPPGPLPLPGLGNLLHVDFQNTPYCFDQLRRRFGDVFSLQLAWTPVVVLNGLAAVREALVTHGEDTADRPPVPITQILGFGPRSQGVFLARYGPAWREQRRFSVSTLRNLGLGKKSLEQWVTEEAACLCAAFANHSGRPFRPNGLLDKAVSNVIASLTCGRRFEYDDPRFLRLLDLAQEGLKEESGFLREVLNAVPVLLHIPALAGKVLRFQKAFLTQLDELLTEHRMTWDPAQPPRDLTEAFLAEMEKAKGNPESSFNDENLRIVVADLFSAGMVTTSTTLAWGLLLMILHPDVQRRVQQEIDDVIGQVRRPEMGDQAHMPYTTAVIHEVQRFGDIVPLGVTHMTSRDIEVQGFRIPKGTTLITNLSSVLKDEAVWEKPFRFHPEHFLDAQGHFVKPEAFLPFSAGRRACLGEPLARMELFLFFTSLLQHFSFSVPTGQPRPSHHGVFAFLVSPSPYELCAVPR

[8] = test system: Streptococcus; assay: Group A Streptococcus viability loss, dose response, counter-screen for streptokinase expression inhibitor project, luminescence, BacTiterGlo (AID 1915); assay type: functional, organism-based;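 note: potency for reduction of bacterial viability or growth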
[9] = test system: Streptococcus sp. 'group A'; assay: growth inhibition of control SK(-) GAS strain, dose response, counter-screen for streptokinase expression inhibitor project, luminescence, kanamycin, BacTiterGlo, confirmation (AID 1900); assay type: functional, organism-based

SMILES: O=C(NCc1cccs1)c1cc(-c2ccncc2)nc2ccc(Br)cc12
- EC50 [1]: > 60 µM (not active)
- EC50 [2]: 2.66 µM (active)

SMILES: O=C(CSc1ncnc2c1nnn2Cc1ccc(F)cc1)NC1CCCC1
- EC50 [1]: > 30 µM (not active)
- EC50 [2]: 3.93 µM (active)

SMILES: CN1CC[C@H](CN2c3ccccc3Sc3ccccc32)C1
- AC50 [3]: 5.01 µM (inconclusive)

SMILES: CCCCCCSc1cc(-c2nc3ccc(C)cn3c2NCCCC)ccc1OC
- AC50 [4]: 7.09 µM (active)
- AC50 [5]: 5.12 µM (active)

SMILES: COc1ccccc1/C=C(/CC(=O)NCc1ccc2c(c1)OCO2)c1nc2ccccc2s1
- EC50 [1]: > 60 µM (not active)
- EC50 [2]: 2.19 µM (active)

SMILES: CC(C)=C[C@H]1[C@@H](C(=O)OCc2cc3c(cc2Cl)OCO3)C1(C)C
- AC50 [3]: 0.794 µM (inconclusive)
- AC50 [6]: 3.16 µM (inconclusive)
- AC50 [7]: 5.01 µM (inconclusive)

SMILES: C[N+]1(C)CCC(=C(c2ccccc2)c2ccccc2)CC1
- AC50 [7]: 12.6 µM (inconclusive)

SMILES: O=C1c2ccccc2C(=O)C1c1ccccc1 [PHENINDIONE]
- AC50 [3]: 15.8 µM (inconclusive)

SMILES: COc1cccc(C2=NOC(C(=O)Nc3cccnc3)C2)c1 (stereo unspecified)
- AC50 [6]: 25.1 µM (inconclusive)

SMILES: C=C[C@@H]1c2cccc(C)c2N(S(=O)(=O)c2ccc(C)cc2)[C@H](c2ccc(OC(C)=O)cc2)C1(C#N)C#N
- AC50 [5]: 5.13 µM (active)

SMILES: CC(C)=CCC12Oc3cc(O)ccc3C1(O)Oc1cc3c(c(O)c1C2=O)C=CC(C)(C)O3 (stereo unspecified)
- EC50 [8]: 3.92 µM (active)
- EC50 [9]: 3.32 µM (active)

SMILES: CC(=O)c1c(C)n(CC(=O)NCc2ccco2)c2ccccc12
- AC50 [4]: > 260 µM (inactive)

SMILES: C=CCN1C(=O)CN=C1Nc1ccccc1
- AC50 [3]: 28.2 µM (inconclusive)
- AC50 [6]: 0.0708 µM (inconclusive)

SMILES: CCOc1ccccc1N1CCN(c2ncnc3scc(-c4ccc(OC)cc4)c23)CC1
- EC50 [1]: > 60 µM (not active)
- EC50 [2]: 2.44 µM (active)

SMILES: CCN(CC)c1ccc(S(=O)(=O)N2CCCCC2)cc1NC(=O)C1=COCCO1
- EC50 [1]: > 60 µM (not active)
- EC50 [2]: 7.54 µM (active)

SMILES: O=C(Cn1nnc(-c2ccccc2)n1)OCc1ccccc1
- AC50 [6]: 8.91 µM (inconclusive)

SMILES: O=C1C=C(c2ccc(F)cc2OCc2ccccc2)C[C@@H](c2ccc(F)cc2)C1
- AC50 [5]: 0.964 µM (active)

SMILES: NC(=NCc1ccccc1)NC(=O)c1nc(Cl)c(N)nc1N [BENZAMIL]
- AC50 [3]: 12.6 µM (inconclusive) and 10 µM (inconclusive)

SMILES: CCn1c(N2CCN(S(=O)(=O)c3ccc(F)cc3)CC2)nc2ccccc21
- AC50 [5]: > 195 µM (inactive)

SMILES: Cc1ccc(-n2c(C)cc(C(=O)CSc3n[nH]c(N)n3)c2C)cc1
- AC50 [6]: 6.31 µM (inconclusive)

SMILES: Cc1cc2c(NCCc3ccccc3)ncnc2s1
- AC50 [4]: 1.98 µM (active)

SMILES: COc1cccc(-c2nc(NCc3ccccc3OC)c3ccccc3n2)c1
- AC50 [6]: 1 µM (inconclusive)
- AC50 [7]: 10 µM (inconclusive)

SMILES: CCC(=O)Nc1ccccc1C(=O)OCC(=O)c1cccc2ccccc12
- AC50 [7]: 0.0891 µM (inconclusive)

SMILES: CSc1cccc(NC(=S)N(CCCN2CCCC2)Cc2cccn2Cc2ccc(Cl)cc2)c1
- EC50 [1]: > 60 µM (not active)
- EC50 [2]: 2.25 µM (active)

SMILES: Sc1nnc(C2CCCCC2)n1/N=C/c1cccs1
- AC50 [3]: 2 µM (inconclusive)
- AC50 [6]: 31.6 µM (inconclusive)

SMILES: CCN(CC)S(=O)(=O)c1ccc(N2CCN(c3ccccc3OC)CC2)c(N)c1
- AC50 [4]: 3.55 µM (active)

SMILES: FC(F)(F)c1cc(CN2CCCC3(CCNCC3)C2)cc(C(F)(F)F)c1
- AC50 [7]: 12.6 µM (inconclusive)

SMILES: O=C(COc1ccc(F)cc1Cl)Nc1cc(S(=O)(=O)N2CCOCC2)ccc1N1CCCCC1
- EC50 [1]: > 60 µM (not active)
- EC50 [2]: 2.56 µM (active)

SMILES: COc1ccc(Sc2ccc(-c3nc4cnccn4c3NC3CCCCC3)cc2OC)cc1
- AC50 [5]: 2.93 µM (active)

SMILES: CC1(C)CC(NCCN2CCN(C3=CC(=C(C#N)C#N)CC(C)(C)C3)CC2)=CC(=C(C#N)C#N)C1
- EC50 [1]: > 60 µM (not active)
- EC50 [2]: 1.31 µM (active)

SMILES: [O-][S+](Cc1ccc(Br)cc1)Cc1nnc(SCc2ccc(Cl)cc2)n1-c1ccccc1 (stereo unspecified)
- AC50 [3]: 25.1 µM (inconclusive)
- AC50 [7]: 12.6 µM (inconclusive)

SMILES: CCOC(=O)C1(Cc2cccc(OC)c2)CCCN(Cc2c(C)nn(C(C)C)c2C)C1 (stereo unspecified)
- EC50 [1]: > 60 µM (not active)
- EC50 [2]: 1.19 µM (active)

SMILES: CCOc1cc(N2CCOCC2)c(OCC)cc1NC(=O)c1ccc2ccccc2n1
- EC50 [1]: 7.58 µM (active)
- EC50 [2]: 2.63 µM (active)

SMILES: c1cc(CN2CCCCC2)cc(OCCCNc2nc3ccccc3s2)c1 [ZOLANTIDINE]
- AC50 [3]: 31.6 µM (inconclusive) and 15.8 µM (inconclusive)

SMILES: O=C(c1ccco1)N1CCC[C@@]2(CCN(c3cccc(-c4ccccc4)c3)C2)C1
- AC50 [7]: 25.1 µM (inconclusive)

SMILES: CCN1C(=O)C(CC(=O)Nc2ccc(F)cc2)N(CCCN2CCN(c3ccc(F)cc3)CC2)C1=S (stereo unspecified)
- AC50 [5]: 3.1 µM (active)

SMILES: COc1ccccc1NS(=O)(=O)c1cc(NC(=O)Nc2ccc(Cl)cc2Cl)ccc1N1CCCCC1
- EC50 [2]: 1.58 µM (active)

SMILES: Cc1cnc(NC(=O)CSc2ccc(Cl)cc2)s1
- AC50 [6]: 20 µM (inconclusive)

SMILES: O=c1c(CCc2ccccc2)nc2cnc(N3CCOCC3)nc2n1Cc1cccs1
- AC50 [6]: 3.16 µM (inconclusive)

SMILES: COc1cc2c(cc1NC(=O)c1cccc(S(=O)(=O)N(C)C)c1)oc1ccccc12
- AC50 [5]: 2.54 µM (active)

SMILES: CC1CCN(C(=O)C(=O)c2cn(CC(=O)N3CCCCCC3)c3ccccc23)CC1
- EC50 [1]: > 60 µM (not active)
- EC50 [2]: 1.26 µM (active)

SMILES: CN(C)c1ncc2ncc(=O)n(CCc3ccccc3)c2n1
- AC50 [7]: 39.8 µM (inconclusive)

SMILES: Cc1cc(C)c(OCC(O)CNC(C)(C)C)c(C)c1 (stereo unspecified)
- AC50 [4]: > 120 µM (inactive)

SMILES: O=C(NCC1CCCCC1)c1cc2ccccc2cc1O
- AC50 [5]: 5.19 µM (active)

SMILES: CCCOc1ccc(-c2nc(N3CCN(CC)CC3)c3ccccc3n2)cc1
- AC50 [5]: 5.57 µM (active)

SMILES: O=C(NCCOCCOCCNC(=O)c1cccnc1)c1cccnc1
- AC50 [4]: 2.55 µM (active)

SMILES: O=[N+]([O-])c1cccc(S(=O)(=O)N2CCC(c3nc(-c4ccncc4)no3)CC2)c1
- EC50 [1]: > 30 µM (not active)
- EC50 [2]: 1.85 µM (active)

SMILES: CN1CCN(S(=O)(=O)c2cc([N+](=O)[O-])ccc2N2CCCCCC2)CC1
- AC50 [3]: 25.1 µM (inconclusive)

SMILES: Cc1ccc(-c2nc3cc(Br)cnc3nc2-c2ccc(C)cc2)cc1
- EC50 [1]: > 60 µM (not active)
- EC50 [2]: 2.68 µM (active)

SMILES: CN(C)C(=O)c1ccc(-c2nc(-n3ccnc3)c3ccccc3n2)cc1
- AC50 [3]: 20 µM (inconclusive)

SMILES: CCC(=O)c1cc(F)c(N2CCN(S(=O)(=O)c3ccc(C)cc3)CC2)cc1C
- EC50 [1]: > 60 µM (not active)
- EC50 [2]: 2.68 µM (active)

SMILES: O=C(Oc1ccccc1)N1CCC2(CCN(Cc3ccncc3)CC2)CC1
- AC50 [3]: 25.1 µM (inconclusive)

SMILES: COc1ccc(-n2c(S)nnc2CNC(=O)c2ccc(S(=O)(=O)N3CCCC3)cc2)cc1
- AC50 [6]: 20 µM (inconclusive)

SMILES: CS(=O)(=O)Nc1cccc(-c2cncnc2NCc2ccccc2)c1
- AC50 [7]: 20 µM (inconclusive)

SMILES: O=P(Oc1ccccc1)(Oc1ccccc1)N1CCN(c2ccc(F)cc2)CC1
- AC50 [4]: 19.4 µM (active)

SMILES: S=C(Nc1cccc(Br)c1)N1CCn2cccc2C1c1cccnc1 (stereo unspecified)
- EC50 [1]: > 60 µM (not active)
- EC50 [2]: 1.78 µM (active)

SMILES: COC(=O)c1ccc(NC(=O)CCN2CCN(Cc3ccccc3)CC2)cc1
- EC50 [1]: > 60 µM (inconclusive)
- EC50 [2]: 0.123 µM (active)

SMILES: COc1cccc(Cn2c(=O)c(CCc3ccccc3)nc3cnc(N4CCNCC4)nc32)c1
- AC50 [3]: 12.6 µM (inconclusive)
- AC50 [7]: 31.6 µM (inconclusive)

SMILES: Fc1ccc(CN2CCCN(Cc3nc(-c4ccc5c(c4)OCO5)no3)CC2)cc1
- EC50 [1]: > 60 µM (inconclusive)
- EC50 [2]: 0.103 µM (active)

SMILES: COc1ccc(-n2nnnc2SCC(=O)Nc2ccccc2)cc1
- AC50 [7]: 2.51 µM (inconclusive)

SMILES: Cc1cccc(NC(NC(=O)c2cccnc2)C(Cl)(Cl)Cl)c1 (stereo unspecified)
- AC50 [3]: 22.4 µM (inconclusive)

SMILES: CC(Nc1nc(N2CCCCC2)nc2ccccc12)c1ccccc1 (stereo unspecified)
- EC50 [1]: 9.37 µM (active)
- EC50 [2]: 0.773 µM (active)

SMILES: O=C(/C=C\NCC(=O)c1ccccc1)c1ccc(F)cc1
- AC50 [6]: 22.4 µM (inconclusive)
- AC50 [7]: 15.8 µM (inconclusive)
